Results published in patent EP0456257A1, “Silver halide color photographic material” (FUJI PHOTO FILM CO., LTD., priority 1990, dated 1991).

Test: Spectral absorption of yellow-colored coupler in methanol
Assay type: physicochemical
Procedure: The melting point of the compound was 269 to 272" C (decomposition). The structure of the compound was confirmed by H-NMR spectrum, mass spectrum and elementary analysis.
75 ml of methyl cellosolve and 26 ml of water were added to 10.1 g of Compound b (prepared as in Synthesis Example 1) and 10.7 g of sodium acetate. The diazonium solution was then added to the system with stirring under cooling with ice. After the dropwise addition was completed, the system was further stirred for 1 hour under ice-cooling and then for 2 hours at room temperature. The resulting crystal was filtered off. The crystal was then dispersed in 200 ml of methanol. A solution of 2.2 g of sodium hydroxide in 10 ml of water was added dropwise to the dispersion. The material was stirred for 3 hours. The system was neutralized with concentrated hydrochloric acid. The resulting crystal was washed with water and then with methanol, and then dried. The resulting crude crystal was purified with heat methanol in the same manner as in Synthesis Example 1 to obtain 14.8 g of Exemplary Coupler (YC-3). The melting point of the compound was 246 to 251 ° C (decomposition). The structure of the compound was confirmed by 'H-NMR spectrum, mass spectrum and elementary analysis.
13.0 g of Compound g prepared by the synthesis method as described in U.S. Patent 4,138,258 was dissolved in 40 ml of N,N-dimethylformamide. […]

maximum absorption wavelength: 458.2 nm
molecular extinction coefficient: 42,800
SMILES: CCCCCCCCC(CCCCCC)COCCCNC(=O)c1cc(OCCOc2ccc(N=Nc3c(C)c(C#N)c(=O)n(-c4ccccc4C(=O)O)c3O)cc2)c2ccccc2c1O (centres unmarked) [YC-30]
